The values that follow come from patent US10808018B2, “Erythropoietin-derived peptides and methods of protecting cells from oxidative damage induced by reactive oxygen species” (SYLUS CO., LTD., priority 2017, dated 2020).

Structures are written as SMILES. Peptide text beside a SMILES is read from it.

The target in this experiment is T1, Soluble mouse EPOR chimera proteins (erythropoietin receptor) (Mus musculus, UniProt P14753).
T1 construct: Soluble mouse EPOR chimera proteins; purchased R&D Systems
T1 sequence (P14753 25-249 limits assumed): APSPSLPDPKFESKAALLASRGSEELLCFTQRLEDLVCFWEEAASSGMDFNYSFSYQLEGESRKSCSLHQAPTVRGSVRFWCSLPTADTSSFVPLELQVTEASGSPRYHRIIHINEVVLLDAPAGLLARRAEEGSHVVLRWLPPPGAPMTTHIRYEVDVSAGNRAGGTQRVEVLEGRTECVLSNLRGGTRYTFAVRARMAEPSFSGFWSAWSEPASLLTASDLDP
Put plainly: Surface plasmon resonance (SPR) binding affinity to erythropoietin receptor. The conditions noted are these: for Ka: association rate. The source says: The SPR technique is to measure interactions between biomolecules in real-time by using an optical principle without specific labeling, and is a system analyzing affinity between two molecules and kinetics, i.e., an association rate (Ka) and a dissociation rate (Kd). In detail, real-time SPR analysis may be performed using Reichert SPR Biosensor SR […] instrument (Reichert Inc., NY, USA). Soluble mouse EPOR chimera proteins (R&D Systems, Minneapolis, Minn., USA) were covalently linked to a carboxymethylated dextran matrix-coated chip (BR-1005-39, Pharmacia Biosensor AB) by an amine coupling procedure using an amine coupling kit (BR-1000-50, GE Healthcare, USA) in accordance with manufacturer's instructions. Each 5 pM, 2.5 pM, and 1.25 pM of the peptide samples of the present disclosure and scrambled peptides were applied at a flow rate of 5 μl/minute, and the experiments were independently performed in duplicate. For signal normalization, DMSO was applied at a flow rate of 5 μl/minute. After each binding cycle, the sensor chip was regenerated by injecting 25 mM of acetic acid at a flow rate of 20 μl/minute.
For orientation: SPR reads the build-up and loss of mass on a sensor chip optically.

In the case of `CSCC[C@H](NC(=O)[C@@H](NC(=O)[C@H](Cc1c[nH]cn1)NC(=O)[C@H](CO)NC(=O)[C@H](CC(C)C)NC(=O)[C@H](CC(C)C)NC(=O)CNC(=O)[C@H](CO)NC(=O)[C@@H](NC(=O)[C@H](CCCNC(=N)N)NC(=O)[C@H](CCCCN)NC(=O)[C@H](CC(C)C)NC(=O)[C@@H](NC(=O)[C@H](Cc1c[nH]cn1)NC(=O)[C@H](CC(C)C)NC(=O)[C@H](CCC(N)=O)NC(=O)[C@@H](N)CC(C)C)C(C)C)C(C)C)[C@@H](C)O)C(=O)N[C@@H](CC(C)C)C(=O)N[C@@H](CC(C)C)C(=O)N[C@@H](CCCCN)C(=O)N[C@@H](C)C(=O)N[C@@H](CC(C)C)C(=O)NCC(=O)O` [ML1-1] (H-LQLHVLKRVSGLLSHTMLLKALG-OH; N-terminus and C-terminus assumed), under “Table 8”, the Ka is recorded as 5.55 × 10^3 and the “dissociation rate constant (koff)” value is on record as 5.9 × 10^−3.

`CC(C)C[C@H](NC(=O)CNC(=O)[C@H](CO)NC(=O)[C@@H](NC(=O)[C@H](C)NC(=O)[C@H](CCCCN)NC(=O)[C@H](CC(=O)O)NC(=O)[C@@H](NC(=O)[C@H](CCC(=O)O)NC(=O)[C@H](CC(C)C)NC(=O)[C@H](CC(=O)O)NC(=O)[C@@H](N)CC(C)C)C(C)C)C(C)C)C(=O)N[C@@H](CCCNC(=N)N)C(=O)N[C@@H](CO)C(=O)N[C@@H](CC(C)C)C(=O)N[C@H](C(=O)N[C@H](C(=O)N[C@@H](CC(C)C)C(=O)N[C@@H](CC(C)C)C(=O)N[C@@H](CCCNC(=N)N)C(=O)N[C@@H](C)C(=O)N[C@@H](CC(C)C)C(=O)NCC(=O)O)[C@@H](C)O)[C@@H](C)O` [ML1-C1] (H-LDLEVDKAVSGLRSLTTLLRALG-OH; N-terminus and C-terminus assumed): where the note is “Table 9”, the Ka is 1745.7 and the “dissociation rate constant (koff)” value worked out at 0.2617.

In the case of `CC(C)C[C@H](NC(=O)CNC(=O)[C@H](CO)NC(=O)[C@@H](NC(=O)[C@H](CCCNC(=N)N)NC(=O)[C@H](CCCCN)NC(=O)[C@H](CC(=O)O)NC(=O)[C@@H](NC(=O)[C@H](Cc1c[nH]cn1)NC(=O)[C@H](CCCNC(=N)N)NC(=O)[C@H](CCC(N)=O)NC(=O)[C@@H](N)CC(C)C)C(C)C)C(C)C)C(=O)N[C@@H](CCCNC(=N)N)C(=O)N[C@@H](CO)C(=O)N[C@@H](CC(C)C)C(=O)N[C@H](C(=O)N[C@H](C(=O)N[C@@H](CC(C)C)C(=O)N[C@@H](CC(C)C)C(=O)N[C@@H](CCCNC(=N)N)C(=O)N[C@@H](C)C(=O)N[C@@H](CC(C)C)C(=O)NCC(=O)O)[C@@H](C)O)[C@@H](C)O` [ML1-C2] (H-LQRHVDKRVSGLRSLTTLLRALG-OH; N-terminus and C-terminus assumed), under “Table 9”, the Ka is given as 1.59E+03 and the “dissociation rate constant (koff)” value is given as 0.01876.

For `CC(C)C[C@H](NC(=O)CNC(=O)[C@H](CCCCN)NC(=O)[C@@H](NC(=O)[C@H](CCCNC(=N)N)NC(=O)[C@H](CCCCN)NC(=O)[C@H](CCCCN)NC(=O)[C@@H](NC(=O)[C@H](Cc1c[nH]cn1)NC(=O)[C@H](CCCNC(=N)N)NC(=O)[C@H](CCC(N)=O)NC(=O)[C@@H](N)CC(C)C)C(C)C)C(C)C)C(=O)N[C@@H](CCCCN)C(=O)N[C@@H](CO)C(=O)N[C@@H](CC(C)C)C(=O)N[C@H](C(=O)N[C@H](C(=O)N[C@@H](CC(C)C)C(=O)N[C@@H](CC(C)C)C(=O)N[C@@H](CCCNC(=N)N)C(=O)N[C@@H](C)C(=O)N[C@@H](CC(C)C)C(=O)NCC(=O)O)[C@@H](C)O)[C@@H](C)O` [ML1-C3] (H-LQRHVKKRVKGLKSLTTLLRALG-OH; N-terminus and C-terminus assumed), under “Table 9”, the Ka is 1104.9 and the “dissociation rate constant (koff)” value is recorded as 0.01086.

Take `CC(C)C[C@H](NC(=O)CNC(=O)[C@H](CO)NC(=O)[C@@H](NC(=O)[C@H](C)NC(=O)[C@H](CCCCN)NC(=O)[C@H](CC(C)C)NC(=O)[C@@H](NC(=O)[C@H](Cc1c[nH]cn1)NC(=O)[C@H](CC(C)C)NC(=O)[C@H](CCC(N)=O)NC(=O)[C@@H](N)CC(C)C)C(C)C)C(C)C)C(=O)N[C@@H](CC(C)C)C(=O)N[C@H](C(=O)N[C@@H](Cc1c[nH]cn1)C(=O)N[C@H](C(=O)N[C@H](C(=O)N[C@@H](CC(C)C)C(=O)N[C@@H](CC(C)C)C(=O)N[C@@H](CCCCN)C(=O)N[C@@H](C)C(=O)N[C@@H](CC(C)C)C(=O)NCC(=O)O)[C@@H](C)O)[C@@H](C)O)[C@@H](C)O` [ML1-H1] (H-LQLHVLKAVSGLLTHTTLLKALG-OH; N-terminus and C-terminus assumed): under “Table 9”, the Ka amounted to 1.01E+03 and the “dissociation rate constant (koff)” value came to 7.94E−03.

For `CC[C@H](C)[C@H](NC(=O)[C@H](CCSC)NC(=O)[C@@H](NC(=O)[C@H](CC(C)C)NC(=O)[C@@H](NC(=O)[C@H](CC(C)C)NC(=O)[C@H](CC(C)C)NC(=O)CNC(=O)[C@H](CO)NC(=O)[C@@H](NC(=O)[C@H](C)NC(=O)[C@H](CCCCN)NC(=O)[C@H](CC(C)C)NC(=O)[C@@H](NC(=O)[C@H](Cc1c[nH]cn1)NC(=O)[C@H](CC(C)C)NC(=O)[C@H](CCC(N)=O)NC(=O)[C@@H](N)CC(C)C)C(C)C)C(C)C)[C@@H](C)O)[C@@H](C)O)C(=O)N[C@@H](CCCNC(=N)N)C(=O)N[C@@H](CCCNC(=N)N)C(=O)N[C@@H](C)C(=O)N[C@@H](CC(C)C)C(=O)NCC(=O)O` [ML1-H2] (H-LQLHVLKAVSGLLTLTMIRRALG-OH; N-terminus and C-terminus assumed), where the note is “Table 9”, the Ka is recorded as 3434.3 and the “dissociation rate constant (koff)” value stood at 1.05E−03.

Regarding `CC[C@H](C)[C@H](NC(=O)[C@H](CCSC)NC(=O)[C@H](C)NC(=O)[C@H](CC(C)C)NC(=O)[C@@H](NC(=O)[C@H](CCCNC(=N)N)NC(=O)[C@H](CC(C)C)NC(=O)CNC(=O)[C@H](C)NC(=O)[C@@H](NC(=O)[C@H](C)NC(=O)[C@H](CCCCN)NC(=O)[C@H](CC(C)C)NC(=O)[C@@H](NC(=O)[C@H](Cc1c[nH]cn1)NC(=O)[C@H](CC(C)C)NC(=O)[C@H](CCC(N)=O)NC(=O)[C@@H](N)CC(C)C)C(C)C)C(C)C)[C@@H](C)O)C(=O)N[C@@H](CCCNC(=N)N)C(=O)N[C@@H](CCCNC(=N)N)C(=O)N[C@@H](C)C(=O)N[C@@H](CC(C)C)C(=O)N[C@@H](C)C(=O)O` [ML1-H3] (H-LQLHVLKAVAGLRTLAMIRRALA-OH; N-terminus and C-terminus assumed), for the setting “Table 9”, the Ka amounted to 4157.6 and the “dissociation rate constant (koff)” value is reported as 4.77E−03.

Regarding `CC(C)C[C@H](NC(=O)CNC(=O)[C@H](CO)NC(=O)[C@@H](NC(=O)[C@H](C)NC(=O)[C@H](CCCCN)NC(=O)[C@H](CC(=O)O)NC(=O)[C@@H](NC(=O)[C@H](Cc1c[nH]cn1)NC(=O)[C@H](CC(C)C)NC(=O)[C@H](CCC(N)=O)NC(=O)[C@@H](N)CC(C)C)C(C)C)C(C)C)C(=O)N[C@@H](CCCNC(=N)N)C(=O)N[C@@H](CO)C(=O)N[C@@H](CC(C)C)C(=O)N[C@H](C(=O)N[C@H](C(=O)N[C@@H](CC(C)C)C(=O)N[C@@H](CC(C)C)C(=O)N[C@@H](CCCNC(=N)N)C(=O)N[C@@H](C)C(=O)N[C@@H](CC(C)C)C(=O)NCC(=O)O)[C@@H](C)O)[C@@H](C)O` [ML1] (H-LQLHVDKAVSGLRSLTTLLRALG-OH; N-terminus and C-terminus assumed), for the setting “Table 8”, the Kd came out at 6.46 µM, the Ka is 1.311 × 10^3 and the “dissociation rate constant (koff)” value was 8.5 × 10^−3. Also, for the setting “Table 9”, the Ka amounted to 1310.8 and the “dissociation rate constant (koff)” value amounted to 8.47E−03.

For `CC(C)C[C@H](NC(=O)[C@H](CCC(=O)O)NC(=O)[C@H](CCCNC(=N)N)NC(=O)[C@H](CC(C)C)NC(=O)[C@H](CC(C)C)NC(=O)[C@H](CCCCN)NC(=O)[C@@H](NC(=O)[C@H](CC(C)C)NC(=O)[C@H](CO)NC(=O)[C@H](CCCNC(=N)N)NC(=O)[C@H](CC(C)C)NC(=O)CNC(=O)[C@H](CO)NC(=O)[C@H](CCC(=O)O)NC(=O)[C@H](C)NC(=O)[C@H](CCCCN)NC(=O)[C@H](CCC(N)=O)NC(=O)[C@@H](NC(=O)[C@H](Cc1c[nH]cn1)NC(=O)[C@@H](N)CCCNC(=N)N)C(C)C)[C@@H](C)O)C(=O)O` [ML2-1] (H-RHVQKAESGLRSLTKLLREL-OH; N-terminus and C-terminus assumed), for the setting “Table 8”, the Ka is listed as 3.1 × 10^2 and the “dissociation rate constant (koff)” value is on record as 4.1 × 10^−3.

For `CC(C)C[C@H](NC(=O)[C@H](C)NC(=O)[C@H](CCCNC(=N)N)NC(=O)[C@H](CC(C)C)NC(=O)[C@H](CC(C)C)NC(=O)[C@@H](NC(=O)[C@@H](NC(=O)[C@H](CC(C)C)NC(=O)[C@H](CO)NC(=O)[C@H](CCCNC(=N)N)NC(=O)[C@H](CC(C)C)NC(=O)CNC(=O)[C@H](CO)NC(=O)[C@@H](NC(=O)[C@H](C)NC(=O)[C@H](CCCCN)NC(=O)[C@H](CC(=O)O)NC(=O)[C@@H](NC(=O)[C@H](Cc1c[nH]cn1)NC(=O)[C@@H](N)CC(C)C)C(C)C)C(C)C)[C@@H](C)O)[C@@H](C)O)C(=O)O` [ML2] (H-LHVDKAVSGLRSLTTLLRAL-OH; N-terminus and C-terminus assumed), the “dissociation rate constant (koff)” value (Table 8) is listed as 4.4 × 10^−3.

In the case of `CC(C)[C@H](NC(=O)[C@H](CCCNC(=N)N)NC(=O)[C@@H](N)[C@@H](C)O)C(=O)N[C@@H](CC(N)=O)C(=O)N[C@@H](Cc1ccc(O)cc1)C(=O)N[C@@H](CCC(N)=O)C(=O)N[C@@H](C)C(=O)N[C@@H](Cc1c[nH]c2ccccc12)C(=O)N[C@@H](CCCCN)C(=O)N[C@@H](CCCNC(=N)N)C(=O)O` [ML3-1] (H-TRVNYQAWKR-OH; N-terminus and C-terminus assumed), for the setting “Table 8”, the Ka is on record as 3.08 × 10^3 and the “dissociation rate constant (koff)” value is listed as 1.3 × 10^−2.

As usually defined, the Kd is the equilibrium constant for the complex coming apart.
